Source: patent US7541368B2, “Pyrazoles as inhibitors of tumor necrosis factor” (Aventis Pharmaceuticals Inc., priority 2003, dated 2009)
pIC50: −log10 of the molar value. Where two headings read alike, the source gives them in different places.

Experiments:
[1] = target: T1, Inactive N-terminal His6 tagged murine P38 (Mus musculus, UniProt P47811); assay: p38 cascade assay (HTRF; inactive p38 activated by MKK-6, ATF-2 phosphorylation); format: biochemical; conditions: inactive p38 preincubated with compound, then MKK-6, ATF-2, ATP; read-out: 50% inhibition in the p38 cascade assay at concentrations within the range
T1 construct: His6 (N); made in house
T1 sequence (P47811 whole entry): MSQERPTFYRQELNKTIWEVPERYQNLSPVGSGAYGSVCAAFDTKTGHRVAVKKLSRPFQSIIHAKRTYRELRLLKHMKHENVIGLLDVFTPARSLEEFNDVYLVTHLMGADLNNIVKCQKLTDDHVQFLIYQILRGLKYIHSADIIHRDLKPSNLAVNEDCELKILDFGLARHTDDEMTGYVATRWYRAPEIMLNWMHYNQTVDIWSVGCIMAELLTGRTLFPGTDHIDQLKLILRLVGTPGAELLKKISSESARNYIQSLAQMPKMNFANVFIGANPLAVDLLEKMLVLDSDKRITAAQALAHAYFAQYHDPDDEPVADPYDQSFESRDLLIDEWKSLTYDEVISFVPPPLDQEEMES

Murine p38 = target: T2, Murine p38 (Mus musculus, UniProt P47811); assay: Murine p38α standard assay against pre-activated p38 (ATF-2 phosphorylation, DELFIA); format: biochemical; conditions: murine p38, ATF-2 substrate
T2 construct: purchased CalBiochem 506122
T2 sequence (P47811 whole entry): as above
Experimental: Compounds of the invention were tested in a conventional assay against pre-activated p38. Murine p38 enzyme activity was determined by measuring the incorporation of the γ-phosphate of ATP into ATF-2.
Human GST-tagged ATF-2 (50 μg/ml) was coated onto 96 well plates. Assay buffer (25 mM Hepes buffer, pH 7.7 containing 25 mM magnesium chloride, 2 mM dithiothreitol, 1 mM sodium orthovanadate and 100 μM ATP) was then added to each well. Compounds were dissolved in DMSO (100%) and added to the assay buffer to give a fmal DMSO concentration of 0.3%. Murine p38 (CalBiochem Catalog # 506122; 40 ng/ml) was then added and the assay continued for 1 hour.
Phosphorylated ATF-2 was quantitated using a rabbit anti-human phospho (threonine 71)-specific ATF-2 primary antibody (Cell Signaling, Catalog # 9221B) followed by a sheep europium N^1-labelled anti-rabbit IgG secondary antibody (Perkin Elmer Life Sciences Catalog # AD0105) and addition of the DELFIA enhancement solution (Perkin Elmer Life Sciences) resulting.
Fluorescence was measured using a Wallac Victor^2 1420 multi-label HTS counter (Perkin Elmer Life Sciences). The results are reported as IC50 values. Compounds were tested over the concentration range of 3×10^−10M to 3>10^−5M.

[2] = system: TNF-alpha release in THP-1 cells; assay: LPS-induced TNF-alpha release in THP-1 cells; format: cell-based; conditions: Homo sapiens, THP-1, LPS-stimulated THP-1 cells
In short: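 Undifferentiated THP-1 monocytes (1×10^6 cells/ml, 1% FCS) preincubated 1 h at 37° C with compound (1×10^−9 to 1×10^−6 M, 0.3% DMSO), then stimulated with LPS (20 μg/ml) for 18 h. Supernatant TNF-alpha measured by sandwich ELISA (TMB read-out), interpolated from a log/log standard curve (0.125-16 ng/ml).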

[3] = system: Human HSP27 phosphorylation; assay: HSP27 phosphorylation in LPS stimulated THP-1 cells; format: cell-based; conditions: Western blot, read-out: HSP-27
Experimental: The effects of compounds on Heat Shock Protein (HSP)-27 phosphorylation in LPS stimulated THP-1 cells were examined as follows:
THP-1 cells were maintained as described for the TNF-alpha assay (1.1.).
THP-1 cells (1×10 ^6 cells/ml, total volume 1 ml) in culture medium were incubated for one hour (5% CO2, 37° C.) with fresh medium containing compounds (0.0001-30 μM) or vehicle (0.1% DMSO). LPS ([…]) was then added to the cells (except the untreated cell sample) and the incubation continued for a further 20 minutes. Cells were collected, centrifuiged and washed with ice-cold PBS buffer (free of Ca^2+ and Mg^2+). Cell lysates were prepared with 1× lysis buffer (Promega Catalog# E153A) for storage at −20° C.
HSP27 phosphorylation was determined by Western blot-enhanced chemi-luminescence (ECL-Amersham)). Briefly, cell lysates were electrophoresed on 12% Tris-glycine gels and transferred to nitrocellulose membranes. The membranes were then probed with primary rabbit antiphospho-HSP27 (ser82) antibody and secondary anti-rabbit antibody conjugated to horse raddish peroxidase. After addition of the ECL detection reagent, the film was developed and the p-HSP27 immunoreactivity quantified by densitometry.

pIC50 [1]: 7.00 to 8.00 | pIC50 (Murine p38): 6.67 | pIC50 ([2]; TNF-alpha by ELISA, read-out: THP 1 cells): 7.97 | pIC50 ([2]; read-out: 50% inhibition in the LPS-induced TNF-alpha release in THP-1 cells assay at concentrations within the range): 6.30 to 8.00 | pIC50 [3]: 7.57
SMILES: COc1ccc(C(=O)N2CCC(Cc3cccc(NC(=O)Nc4cc(C(C)(C)C)nn4-c4ccc(C)cc4)c3)CC2)c(OC)c1 [Compound A27, 1-(5-tert-butyl-2-p-tolyl-2H-pyrazol-3-yl)-3-{3-[1-(2,4-dimethoxy-benzoyl)-piperidin-4-ylmethyl]-phenyl}-urea]
